# Measured values: patent publication US9078868B2, “Therapeutic agent for accelerating recovery of animal under medical treatment” (UNIVERSITY OF MIYAZAKI, priority 2010, dated 2015)
# No end group written: not given here. *: point of attachment. Octanoyl = CCCCCCCC(=O)*
# What was measured:
# [1] = tested on: hospitalized animals (canines and felines) after surgery; experiment: Example 1: single dose of ghrelin in hospitalized animals after surgery, parameters before vs after administration; type: in vivo; conditions: for Body temperature: animals improved/animals evaluated / Biochemical tests: animals improved/animals evaluated / Body temperature: response rate / Activity (vigor): animals improved/animals evaluated / Hematology tests: animals improved/animals evaluated: single dose
# Protocol: In these Examples, a canine-derived ghrelin (a peptide compound in which a side chain hydroxyl group of the serine residue at the 3rd position from the amino terminus is acylated with an n-octanoyl group in SEQ ID NO: 1) was used as ghrelin. The canine-derived ghrelin was chemically synthesized and then lyophilized, and a canine-derived ghrelin for administration containing 0.1, 0.3, 0.5, or 1 mg per vial of a canine-derived ghrelin was prepared.
# To administer ghrelin to animals, the canine-derived ghrelin was dissolved to a concentration of 1 mg/2 mL in physiological saline and intravenously, subcutaneously, or intramuscularly injected after the dose was adjusted depending on the body weight.
# Animals hospitalized in veterinary hospitals, particularly canines and felines, were used for treatment. These animals may or may not have undergone a surgery for treatment. The surgeries performed on the animals were pyometra surgery, surgical removal of a reproductive organ, surgical removal of mammary gland tumor, ovary cyst surgery, liver cell tumor surgery, disc hernia surgery, diaphragmatic hernia surgery, fracture surgery, gastrointestinal tract surgery, and urethroplasty.
# Physical conditions in animals with various pathological conditions were examined by measuring parameters including activity (vigor), blood cell test values, biochemical test values, urinalysis, electrolyte tests, body weight, body temperature, the degree of anger or anxiety, respiratory rate, and the like to evaluate the effect of improving physical conditions in the animals. The effect was evaluated by comparing various evaluation parameters before and after administration.
# The evaluation parameters used were activity (vigor), body temperature, hematology parameters (blood cell test values), serum biochemistry parameters (biochemical test values), the degree of anger or anxiety, and respiratory rate. […] The degree of anger or anxiety of an animal observed visually by an observer were also evaluated using the following criteria: 1. calm and accustomed to a health care professional, 2. able to be touched by but unaccustomed to a health care professional and restless, 3. wandering around or hiding in the kennel with anxiety, 4. able to be barely touched, and 5. too violent to be touched by a health care professional and tends to bite.
# 13.2 to 80 μg/kg of a canine-derived ghrelin (chemically synthesized) was administered by an intravenous injection, a subcutaneous injection, or an intramuscular injection (solution for an injection: physiological saline or the like) to 32 animals (canines and felines) after surgery which were hospitalized in veterinary hospitals. The 32 cases of the animals were as follows.
# Pyometra surgery and surgical removal of reproductive organ, 18 animals; mammary gland tumor surgery, three animals (including one animal also having pyometra); disc hernia surgery, two animals; surgery for a fracture or a traffic accident injury, three animals; urethroplasty, three animals; gastrointestinal tract surgery, two animals; and pneumothorax surgery, one animal.
# Improvement of physical conditions of these animals was evaluated in terms of activity (vigor), body temperature, hematology parameters (blood cell test values), and serum biochemistry parameters (biochemical test values).
# [2] = tested on: animals which did not ingest food after administration of ghrelin; experiment: Example 4: improvement in animals which did not ingest food after administration of ghrelin; type: in vivo, canines and felines
# From the text: Diseases: Rib fracture, chronic renal failure, falling accident, infectious respiratory syndrome, hemobartonellosis, FIV, FELV infection, CPV infection, habu bite, diarrhea, vomiting, mammary gland tumor, traffic accident, fracture surgery, urinary retention, renal failure, urethroplasty, urinary retention, forelimb trauma Number of animals: 15 Activity improved: 11/13 (2, not evaluated; 2 unchanged) GPT value improved: 3/3 GOT value improved: 2/2 BUN value improved: 2/2 CRE value improved: 2/2 CPK value improved: 1/1 ALP value improved: 1/1 WBC value improved: 1/1 (decreased) PLT value improved: 2/2 Body temperature decreased: 2/2
# [3] = gastrointestinal tract surgery, 2 animals
# [4] = pyometra surgery and surgical removal of reproductive organ, 18 animals
# [5] = surgical removal of mammary gland tumor, 3 animals
# [6] = total, 32 animals after surgery
# [7] = animals which did not ingest food
substance,measurement,setting,value
"GSS (n-octanoyl) FLSPEHQKLQQRKESKKPPAKLQPR (GSS(Octanoyl)FLSPEHQKLQQRKESKKPPAKLQPR; listed as Canis familiaris) [ghrelin, chemically synthesized, lyophilized]",Body temperature: animals improved/animals evaluated,"[1]; disc hernia surgery, 2 animals",1/1
same,Serum creatinine (Cre) value after administration,"[1]; example, animal after surgery, before administration 6.0 mg/dL",1.1 mg/dL
same,Blood urea nitrogen (BUN) value after administration,"[1]; example, animal after surgery, before administration 44.2 mg/dL",29.3 mg/dL
same,Total cholesterol (T-CHO) value after administration,"[1]; example, animal after surgery, before administration 405 mg/dL",260 mg/dL
same,Glutamic pyruvic transaminase (GPT) value after administration,"[1]; example, animal after surgery, before administration 180 IU/L",85 IU/L
same,Alkaline phosphatase (ALP) value after administration,"[1]; example, animal after surgery, before administration 345 IU/L",286 IU/L
same,Creatinine phosphokinase (CPK) value after administration,"[1]; example, animal after surgery, before administration 1429 IU/L",955 IU/L
same,C-reactive protein (CRP) value after administration,"[1]; example, animal after surgery, before administration upper limit of measurement",7.3 mg/dL
same,White blood cell count after administration,"[1]; example, animal after surgery, high count decreased, before administration 44.1×10^3/μL",17700 µL⁻¹
same,Platelet count after administration,"[1]; example, animal after surgery, low count increased, before administration 13.9×10^4/μL",585000 µL⁻¹
same,Red blood cell count after administration,"[1]; example, animal after surgery, low count increased, before administration 214×10^4/μL",3.04e+06 µL⁻¹
same,Hemoglobin level after administration,"[1]; example, animal after surgery, low level increased",7.7 g/dL
same,Biochemical tests: animals improved/animals evaluated,[1]; [3],1/1
same,Body temperature: animals improved/animals evaluated,[1]; [3],1/1
same,Body temperature: animals improved/animals evaluated,"[1]; pneumothorax surgery, 1 animal",0/1
same,Body temperature: response rate,"[1]; pneumothorax surgery, 1 animal",(0%)
same,Activity (vigor): animals improved/animals evaluated,[1]; [4],6/7
same,Biochemical tests: animals improved/animals evaluated,[1]; [4],3/3
same,Body temperature: animals improved/animals evaluated,[1]; [4],3/4
same,Hematology tests: animals improved/animals evaluated,[1]; [4],3/4
same,Activity (vigor): animals improved/animals evaluated,"[1]; surgery for fracture or traffic accident injury, 3 animals",3/3
same,Activity (vigor): animals improved/animals evaluated,[1]; [5],2/2
same,Biochemical tests: animals improved/animals evaluated,[1]; [5],1/1
same,Body temperature: animals improved/animals evaluated,[1]; [5],1/1
same,Hematology tests: animals improved/animals evaluated,[1]; [5],1/1
same,Activity (vigor): animals improved/animals evaluated,[1]; [6],11/12
same,Biochemical tests: animals improved/animals evaluated,[1]; [6],5/6
same,Body temperature: animals improved/animals evaluated,[1]; [6],5/8
same,Hematology tests: animals improved/animals evaluated,[1]; [6],4/6
same,Activity (vigor): animals improved/animals evaluated,"[1]; urethroplasty, 3 animals",1/1
same,Biochemical tests: animals improved/animals evaluated,"[1]; urethroplasty, 3 animals",1/2
same,Body temperature: animals improved/animals evaluated,"[1]; urethroplasty, 3 animals",0/1
same,Body temperature: response rate,"[1]; urethroplasty, 3 animals",(0%)
same,Hematology tests: animals improved/animals evaluated,"[1]; urethroplasty, 3 animals",1/2
same,Activity improved: animals improved/animals evaluated,"[2]; 15 animals which did not ingest food, 2 not evaluated, 2 unchanged",11/13
same,ALP value improved: animals improved/animals evaluated,[2]; [7],1/1
same,BUN value improved: animals improved/animals evaluated,[2]; [7],2/2
same,Body temperature decreased: animals improved/animals evaluated,[2]; [7],2/2
same,CPK value improved: animals improved/animals evaluated,[2]; [7],1/1
same,CRE value improved: animals improved/animals evaluated,[2]; [7],2/2
same,GOT value improved: animals improved/animals evaluated,[2]; [7],2/2
same,GPT value improved: animals improved/animals evaluated,[2]; [7],3/3
same,PLT value improved: animals improved/animals evaluated,[2]; [7],2/2
same,WBC value improved (decreased): animals improved/animals evaluated,[2]; [7],1/1
